According to patent publication US20240301408A1, “MICRORNA 195 COMPOSITIONS AND METHODS FOR TREATING COGNITIVE IMPAIRMENT” (UNITED STATES GOVERNMENT AS REPRESENTED BY THE DEPARTMENT …, priority 2021, published 2024):

What was measured:
BV2 cells = test: LPS-induced gene expression (pdcd4, smad7, il10a) in BV2 microglia with miR-195-5p over-expression; format: cell-based
Experimental: For example, LPS (at 0.2 μg/ml) treatment for overnight in BV2 cells leads to increased expression of pdcd4 and smad7 (FIG. 13A) and reduced expression of il10ra (FIG. 13C). […] Over-expression of miR-195-5p also attenuates LPS-induced pro-inflammatory cytokine release (IL-6 and TNFα; FIG. 13B). […] For these experiments, purified exosomes were derived from human APOE3/3 and 4/4 iPSC-derived astrocytes w/wo miR-195 over-expression detected by an exosome marker, ALIX. Fluorescence labeled exosomes were taken up by IBA1+ microglia cells.
Over-expression of miR-195-5p in microglia inhibits LPS-induced proinflammatory responses and augments anti-inflammatory responses. […] However, over-expression of miR-195-5p reduces expression levels of pdcd4 and smad7 and increases il10a expression in the presence of LPS. Over-expression of miR-195-5p also attenuates LPS-induced pro-inflammatory cytokine release (IL-6 and TNFα; FIG. 17B).

ApoE = test: brain ApoE levels in ApoE KI mice after miR-195 over-expression; format: in vivo; conditions: ApoE4+/+ or ApoE3+/+ mouse brains
Experimental: (§1) Stereotaxic injection and behavior studies. Eight to nine weeks old male and female ApoE3^+/+ and ApoE4^+/+ KI mice without 5×FAD background (N=19-23/group), or with 5×FAD background (N=15-17/group) were placed in the stereotaxic apparatus with AAV2 or scramble virus administered into the dorsal CA1 regions of bilateral hippocampal brain regions using pressure injection (Labonte B et al., Nat Med 2017, and Passini M A et al., The Journal of neuroscience 2006). Injection volumes (0.5-2.0 μl) were delivered over 10 min to avoid tissue damage. […]
(§2) Brain and neuronal sample preparation and biochemical analysis. […] Levels of Aβ42, Aβ40, pTau, Tau and ApoE were determined using high-sensitive ELISA kits. […]
(§3) Statistical analysis. […] Levels of miR-195-5p and miR-374 were normalized to U6 and RNU6B (internal controls) while synj1 mRNA normalized to GAPDH and 18s, and then expressed as Log2fold of changes when compared to controls. Levels of synj1, dyn1, pTau, Tau, and holoAPP were normalized to β-actin levels and expressed as a percentage of the control. Absolute Aβ42, Aβ40, pTau, Tau, and ApoE concentrations were quantitatively determined by ELISA and expressed as a percentage of the control. […] Pearson correlation coefficients were calculated to determine the linear relationship between the two variables. […]

[1] = test system: lysosomes of synj1+/+ and synj1-/- neurons; test: lysosome size in mouse synj1+/+ and synj1-/- neurons co-cultured with ApoE4+/+ iPSC-derived astrocytes; format: cell-based
Experimental: (§4) Mouse Neuronal and human iPSC culture. Primary cortical neurons were cultured (Zhu L et al., Proc Natl Acad Sci USA 2015, and Zhu L et al., J Biol Chem 2013) before being fixed and stained for confocal microscopy analysis (Zeiss LSM) (Berg I et al., Nat Protoc 2010). In some conditions, bovine serum albumin (BSA) or receptor-associated protein (RAP) was included in the cultured media (N=3/group). Alternatively, cultured neurons were transfected with adeno-associated virus 2 (AAV2)-containing miR-195-5p or miR-374 or scramble controls for 5 days before subjected to analysis. The ApoE4^+/+ and ApoE3^+/+ iPSCs were differentiated into neural progenitor cells (NPCs) by dual SMAD inhibition followed by neural rosette selection and forebrain-specific patterning by 20 ng/ml FGF2 exposure (Bowles K R et al., PloS one 2019, and Tcw J et al., Stem cell reports 2017). These NPCs were purified by MACS for CD271^−/CD133^+ (Bowles K R et al., PloS one 2019) and differentiated to cortical neurons (Bardy C et al., Proc Natl Acad Sci USA 2015, and Paquet D et al., Nature 2016) and a homogeneous population of astrocytes (Tcw J et al., Stem cell reports 2017, and Shaltouki A et al., Stem Cells 2013) before subjected to viral transfection and confocal microscopy analysis. […]

[2] = test system: lysosomes of ApoE4+/+ / ApoE3+/+ neurons; test: lysosome size and number (Lysotracker, confocal) in neurons of iPSC-derived neuron and astrocyte co-culture; format: cell-based, human
Experimental: Mouse Neuronal and human iPSC culture. Primary cortical neurons were cultured (Zhu L et al., Proc Natl Acad Sci USA 2015, and Zhu L et al., J Biol Chem 2013) before being fixed and stained for confocal microscopy analysis (Zeiss LSM) (Berg I et al., Nat Protoc 2010). In some conditions, bovine serum albumin (BSA) or receptor-associated protein (RAP) was included in the cultured media (N=3/group). Alternatively, cultured neurons were transfected with adeno-associated virus 2 (AAV2)-containing miR-195-5p or miR-374 or scramble controls for 5 days before subjected to analysis. The ApoE4^+/+ and ApoE3^+/+ iPSCs were differentiated into neural progenitor cells (NPCs) by dual SMAD inhibition followed by neural rosette selection and forebrain-specific patterning by 20 ng/ml FGF2 exposure (Bowles K R et al., PloS one 2019, and Tcw J et al., Stem cell reports 2017). These NPCs were purified by MACS for CD271^−/CD133^+ (Bowles K R et al., PloS one 2019) and differentiated to cortical neurons (Bardy C et al., Proc Natl Acad Sci USA 2015, and Paquet D et al., Nature 2016) and a homogeneous population of astrocytes (Tcw J et al., Stem cell reports 2017, and Shaltouki A et al., Stem Cells 2013) before subjected to viral transfection and confocal microscopy analysis. Alternatively, mouse cortical neurons derived from ApoE4^+/+ and ApoE3^+/+ KI mice with synj1^+/+ or synj1^−/− genotypes were co-cultured with ApoE4^+/+ and ApoE3^+/+ iPSC-derived pure astrocytes. In some experiments, cultured neurons were transfected with AAV2-containing miR-195-5p, scramble controls or miR195 inhibitors that specifically prevent miR-195-5p binding to its target mRNA before co-culturing with iPSC-derived astrocytes. Cultured iPSC-derived neurons and astrocytes were then incubated with lysotracker red for various time periods before fixation and double-stained for pTau and a nuclear marker DAPI (blue) for confocal microscopy analysis (Zeiss). N=4-5/condition.

[3] = test system: endogenous mouse Aβ40 or Aβ42; test: endogenous brain Aβ40 / Aβ42 levels in ApoE KI mice after miR-195 over-expression; format: in vivo; conditions: ApoE4+/+ or ApoE3+/+ mouse brains
Experimental: as §1, §2, §3

pTau = pTau levels in iPSC-derived brain cell culture (AT8 staining, ELISA); format: cell-based, human; conditions: iPSC-derived neuron and astrocyte co-culture
Experimental: as §4, with “2017).” for “2017). These NPCs were purified by MACS for CD271^−/CD133^+ (Bowles K R et al., PloS one 2019) and differentiated to cortical neurons (Bardy C et al., Proc Natl Acad Sci USA 2015, and Paquet D et al., Nature 2016) and a homogeneous population of astrocytes (Tcw J et al., Stem cell reports 2017, and Shaltouki A et al., Stem Cells 2013) before subjected to viral transfection and confocal microscopy analysis.”
as §2

UAGCAGCACAGAAAUAUUGGC (chemistry not given here) [miR-195-5p, over-expressed via AAV2-containing miR-195-5p from ABM Inc]
expression levels of pdcd4 and smad7 (BV2 cells; LPS overnight): dramatically reduces
il10a expression (BV2 cells; in the presence of LPS): increases
ApoE levels (ApoE): No significant changes
ApoE levels (ApoE; listed as miR-195): no significant changes
size of lysosomes ([1]; synj1+/+ neurons, control 101.5 μm^2): 75.8 μm^2
size of lysosomes ([1]; synj1-/- neurons, control 77.0 μm^2): 69.7 μm^2
lysosomal phenotypes compared to baseline ([2]; ApoE3+/+ neurons): No significant differences
neurons with lysosome diameter between 0 to 10 μm ([2]; ApoE4+/+ neurons): 53.3%
neurons with >10 lysosomes/cell ([2]; ApoE4+/+ neurons, baseline 18.4%): 1.7%
endogenous Aβ40 or Aβ42 levels [3]: No significant changes
endogenous Aβ40 or Aβ42 levels ([3]; listed as miR-195): no significant changes
pTau levels (fluorescent staining and ELISA) (pTau): reduced
